The values that follow come from patent publication US9193729B2, “Inhibiting transient receptor potential ion channel TRPA1” (Cubist Pharmaceuticals, Inc., priority 2011, dated 2015).

In series [1] the test system is formalin-induced pain behavior. The series can be described thus: Formalin-induced pain behavior in vivo rodent model. Also on record: species or system rat. The following applies: i.p. administration, in words. The source says: The data shown in Tables 3a, 3b, and 3c and FIG. 2 were obtained by administering a pharmaceutical composition comprising the compound of Formula (Ia) to rodents in the formalin-induced pain duration at various doses according to Example 5. Specifically, the data in Tables 3a, 3b, and 3c and FIG. 2 were obtained by intraperitoneal (i.p.) administration of compositions containing different concentrations of the compound of Formula (Ia), a comparator composition containing recited amounts of the comparator compound (e.g., 150 mg/kg of the comparator compound of Formula (II) in Table 3a) and a control composition containing the vehicle (e.g., without the compound of Formula (Ia) or a comparator compound).
The compound of Formula (Ia) and the comparator compounds of Formula (II) and Formula (III) were tested in the formalin-induced pain test reported by Dubuisson et al., Pain 1977 December; 4(2):161-74 (incorporated herein by reference in its entirety). Dubuisson et al. (1977) describe a method for assessing pain and analgesia in rats and cats. Briefly, dilute formalin (50 μL of 3% formalin) is injected into the plantar surface of the hind paw. […] The individual responsible for counting the pain behaviors in a particular study is blinded to the treatment groups.
Rats were treated with the HCl salt of Compound (Ia) at various doses (3, 10, 30, and 50 mg/kg, IP) or with the vehicle (IP).

In series [2] the test system is serum biomarkers of hepatotoxicity. The series can be described thus: Hepatotoxicity serum biomarker study in dogs, oral dose. It counts as in vivo, dog. Conditions: for ALT level elevation: single PO dose of 50 mg/kg. As to the method: The compound of Formula (Ia) was orally dosed to […] at dose levels of 5, 15 or 50 mg/kg using 30% Sulfobutylether β-cyclodextrin as the vehicle for assessment of safety as measured via serum chemistry biomarkers of hepatotoxicity or bile duct injury FIG. 5A, showing measurements of alanine aminotranferease [ALT], aspartate aminotranferease [AST], alkaline phosphatase [ALP] and gamma-glutamyl transferase [GGT] in the dogs at each dose level (each bar represents a measurement from 1 dog in the study). […] For example, the ALT levels were elevated up to about 60-fold in male dogs and up to about 130-fold in female beagle dogs following a single PO dose of 50 mg/kg.

For a further series, the system named is female rats. The series can be described thus: 7-day i.p. repeat dose screening toxicity study. It counts as in vivo, rat. Conditions: rats, 50 mg/kg/day i.p. for 7 consecutive days. As to the method: The compound of Formula (Ia) was evaluated in a 7-day repeat dose screening toxicity study in female rats. In order to maximize systemic exposure, rats were administered compound of Formula (Ia) i.p. at 50 mg/kg/day for 7 consecutive days, to obtain the results shown in FIG. 6. Clinical chemistry parameters were evaluated on Days 3 and 8. Histopathology was performed on select organs including the liver, kidney, spleen, and lung.

For the next series, the target named is hTRPA1 (Homo sapiens, UniProt O75762). The series can be described thus: Whole-cell patch clamp inhibition of hTRPA1. Conditions: same procedure as Example 3; species not given; read-out: IC50 in Patch Clamp Assay, TRPA1. It counts as cell-based. As to the method:
(§1) Data for TRPA1 inhibition and the selectivity of TRPA1 inhibition was obtained by this method for the compound of Formula (Ia) and included in Table 1 and Table 2. All currents were recorded in whole-cell configuration using EPC-9 and EPC-10 amplifiers and Patchmaster software (HEKA). […] The standard pipette solution consisted of 140 mM CsAsp, 10 mM EGTA, 10 mM HEPES, 2.27 mM MgCl2, 1.91 mM CaCl2, 4 mM MgATP, and 0.1-0.3 mM Na2GTP, with pH adjusted to 7.2 with CsOH. In addition, a solution containing 145 mM CsCl, 10 mM HEPES, 10 mM EGTA and 1 mM MgCl2 (pH 7.2 adjusted with CsOH) can be used. The standard bath solution contained 150 mM NaCl, 10 mM HEPES, 10 mM glucose, 4.5 mM KCl, 1 mM EGTA, 3 mM MgCl2, with pH adjusted to 7.4 with NaOH. In some instances, 2 mM CaCl2 was added in place of EGTA and the concentration of MgCl2 was reduced to 1 mM.
(§2) Data were collected either by continuous recordings at −60 mV or by applying voltage ramps from a holding potential of 0 mV every 4 s. […] Inward and outward currents were analyzed from the ramps at −80 and 80 mV, respectively. […]
(§3) Solutions were switched using a gravity-fed continuous focal perfusion system. […] Temperatures were confirmed using a thermistor (Warner Instruments, TA-29), with temperatures at the recorded cell estimated to be within +/−2° C. of those reported. […]

A further series deals with T1, hTRPV3 (Homo sapiens, UniProt Q8NET8).
T1 sequence (Q8NET8 1-790): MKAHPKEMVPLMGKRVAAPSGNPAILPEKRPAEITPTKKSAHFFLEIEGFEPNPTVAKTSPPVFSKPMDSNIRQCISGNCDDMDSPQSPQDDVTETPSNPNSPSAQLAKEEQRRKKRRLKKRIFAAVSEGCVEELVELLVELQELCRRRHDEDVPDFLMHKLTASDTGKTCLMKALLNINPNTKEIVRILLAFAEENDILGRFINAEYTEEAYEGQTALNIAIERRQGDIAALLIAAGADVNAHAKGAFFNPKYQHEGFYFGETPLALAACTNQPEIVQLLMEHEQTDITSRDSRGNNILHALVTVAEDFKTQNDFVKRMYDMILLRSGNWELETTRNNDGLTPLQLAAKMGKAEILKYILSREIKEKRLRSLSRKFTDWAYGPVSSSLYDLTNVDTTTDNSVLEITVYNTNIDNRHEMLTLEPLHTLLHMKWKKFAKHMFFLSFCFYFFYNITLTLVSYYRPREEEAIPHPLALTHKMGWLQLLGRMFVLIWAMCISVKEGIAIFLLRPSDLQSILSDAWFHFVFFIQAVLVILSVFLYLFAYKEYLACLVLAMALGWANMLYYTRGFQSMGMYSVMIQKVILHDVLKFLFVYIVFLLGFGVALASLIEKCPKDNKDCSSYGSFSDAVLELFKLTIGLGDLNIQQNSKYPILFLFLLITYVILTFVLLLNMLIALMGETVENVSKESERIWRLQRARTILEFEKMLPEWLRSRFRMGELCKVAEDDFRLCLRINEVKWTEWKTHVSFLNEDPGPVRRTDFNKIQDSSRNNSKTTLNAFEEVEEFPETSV
The experiment in a line: Patch clamp selectivity, hTRPV3. It counts as cell-based. Conditions: same procedure as Example 3; species not given; read-out: IC50 in Patch Clamp Assay, TrpV3. How it is done:
as §1, §2, §3
(Patch clamp records ionic current or voltage across a cell membrane.)

For another series, the target named is hERG (Homo sapiens, UniProt Q12809). The series can be described thus: Patch clamp selectivity, hERG. It counts as cell-based. Conditions: same procedure as Example 3. As to the method: as §1, §2, §3
Sequence of hERG (Q12809 whole entry): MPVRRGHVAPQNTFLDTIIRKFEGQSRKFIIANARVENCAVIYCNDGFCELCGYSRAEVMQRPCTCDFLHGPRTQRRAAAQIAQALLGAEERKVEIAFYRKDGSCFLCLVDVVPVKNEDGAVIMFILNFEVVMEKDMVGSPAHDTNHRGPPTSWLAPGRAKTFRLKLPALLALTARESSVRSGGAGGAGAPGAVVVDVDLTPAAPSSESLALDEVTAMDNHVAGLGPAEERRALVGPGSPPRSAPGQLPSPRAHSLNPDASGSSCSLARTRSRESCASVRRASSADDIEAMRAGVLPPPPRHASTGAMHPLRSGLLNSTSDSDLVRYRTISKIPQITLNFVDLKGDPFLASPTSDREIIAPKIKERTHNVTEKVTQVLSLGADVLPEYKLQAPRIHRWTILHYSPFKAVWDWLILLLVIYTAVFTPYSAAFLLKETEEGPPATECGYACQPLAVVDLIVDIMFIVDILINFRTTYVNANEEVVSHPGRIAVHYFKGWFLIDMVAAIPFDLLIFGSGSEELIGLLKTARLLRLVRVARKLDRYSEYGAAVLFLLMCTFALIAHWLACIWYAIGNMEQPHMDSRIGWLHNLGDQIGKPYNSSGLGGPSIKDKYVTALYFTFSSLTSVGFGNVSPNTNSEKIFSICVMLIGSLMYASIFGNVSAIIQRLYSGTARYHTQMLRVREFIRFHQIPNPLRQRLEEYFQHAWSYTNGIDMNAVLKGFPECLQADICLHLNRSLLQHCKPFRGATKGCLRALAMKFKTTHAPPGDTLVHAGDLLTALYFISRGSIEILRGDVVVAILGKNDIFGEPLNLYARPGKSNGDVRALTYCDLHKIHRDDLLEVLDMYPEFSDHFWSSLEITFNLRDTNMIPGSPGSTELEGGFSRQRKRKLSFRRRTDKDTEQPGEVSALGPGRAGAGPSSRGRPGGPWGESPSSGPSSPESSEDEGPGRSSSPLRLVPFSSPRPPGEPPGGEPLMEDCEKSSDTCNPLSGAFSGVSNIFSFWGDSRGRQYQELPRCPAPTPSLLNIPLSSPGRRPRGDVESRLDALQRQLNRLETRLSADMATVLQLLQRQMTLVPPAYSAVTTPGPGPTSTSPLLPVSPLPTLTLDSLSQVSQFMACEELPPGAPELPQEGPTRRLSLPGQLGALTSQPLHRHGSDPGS
Another series concerns the target hNav1.2 (Homo sapiens, UniProt Q99250). The series can be described thus: Patch clamp selectivity, hNav1.2. Type of series: cell-based. The following applies: same procedure as Example 3; species not given; read-out: IC50 in Patch Clamp Assay, NaV1.2. As to the method:
as §1, §2, §3

Structures are written as SMILES.

Sequence of hNav1.2 (Q99250 whole entry): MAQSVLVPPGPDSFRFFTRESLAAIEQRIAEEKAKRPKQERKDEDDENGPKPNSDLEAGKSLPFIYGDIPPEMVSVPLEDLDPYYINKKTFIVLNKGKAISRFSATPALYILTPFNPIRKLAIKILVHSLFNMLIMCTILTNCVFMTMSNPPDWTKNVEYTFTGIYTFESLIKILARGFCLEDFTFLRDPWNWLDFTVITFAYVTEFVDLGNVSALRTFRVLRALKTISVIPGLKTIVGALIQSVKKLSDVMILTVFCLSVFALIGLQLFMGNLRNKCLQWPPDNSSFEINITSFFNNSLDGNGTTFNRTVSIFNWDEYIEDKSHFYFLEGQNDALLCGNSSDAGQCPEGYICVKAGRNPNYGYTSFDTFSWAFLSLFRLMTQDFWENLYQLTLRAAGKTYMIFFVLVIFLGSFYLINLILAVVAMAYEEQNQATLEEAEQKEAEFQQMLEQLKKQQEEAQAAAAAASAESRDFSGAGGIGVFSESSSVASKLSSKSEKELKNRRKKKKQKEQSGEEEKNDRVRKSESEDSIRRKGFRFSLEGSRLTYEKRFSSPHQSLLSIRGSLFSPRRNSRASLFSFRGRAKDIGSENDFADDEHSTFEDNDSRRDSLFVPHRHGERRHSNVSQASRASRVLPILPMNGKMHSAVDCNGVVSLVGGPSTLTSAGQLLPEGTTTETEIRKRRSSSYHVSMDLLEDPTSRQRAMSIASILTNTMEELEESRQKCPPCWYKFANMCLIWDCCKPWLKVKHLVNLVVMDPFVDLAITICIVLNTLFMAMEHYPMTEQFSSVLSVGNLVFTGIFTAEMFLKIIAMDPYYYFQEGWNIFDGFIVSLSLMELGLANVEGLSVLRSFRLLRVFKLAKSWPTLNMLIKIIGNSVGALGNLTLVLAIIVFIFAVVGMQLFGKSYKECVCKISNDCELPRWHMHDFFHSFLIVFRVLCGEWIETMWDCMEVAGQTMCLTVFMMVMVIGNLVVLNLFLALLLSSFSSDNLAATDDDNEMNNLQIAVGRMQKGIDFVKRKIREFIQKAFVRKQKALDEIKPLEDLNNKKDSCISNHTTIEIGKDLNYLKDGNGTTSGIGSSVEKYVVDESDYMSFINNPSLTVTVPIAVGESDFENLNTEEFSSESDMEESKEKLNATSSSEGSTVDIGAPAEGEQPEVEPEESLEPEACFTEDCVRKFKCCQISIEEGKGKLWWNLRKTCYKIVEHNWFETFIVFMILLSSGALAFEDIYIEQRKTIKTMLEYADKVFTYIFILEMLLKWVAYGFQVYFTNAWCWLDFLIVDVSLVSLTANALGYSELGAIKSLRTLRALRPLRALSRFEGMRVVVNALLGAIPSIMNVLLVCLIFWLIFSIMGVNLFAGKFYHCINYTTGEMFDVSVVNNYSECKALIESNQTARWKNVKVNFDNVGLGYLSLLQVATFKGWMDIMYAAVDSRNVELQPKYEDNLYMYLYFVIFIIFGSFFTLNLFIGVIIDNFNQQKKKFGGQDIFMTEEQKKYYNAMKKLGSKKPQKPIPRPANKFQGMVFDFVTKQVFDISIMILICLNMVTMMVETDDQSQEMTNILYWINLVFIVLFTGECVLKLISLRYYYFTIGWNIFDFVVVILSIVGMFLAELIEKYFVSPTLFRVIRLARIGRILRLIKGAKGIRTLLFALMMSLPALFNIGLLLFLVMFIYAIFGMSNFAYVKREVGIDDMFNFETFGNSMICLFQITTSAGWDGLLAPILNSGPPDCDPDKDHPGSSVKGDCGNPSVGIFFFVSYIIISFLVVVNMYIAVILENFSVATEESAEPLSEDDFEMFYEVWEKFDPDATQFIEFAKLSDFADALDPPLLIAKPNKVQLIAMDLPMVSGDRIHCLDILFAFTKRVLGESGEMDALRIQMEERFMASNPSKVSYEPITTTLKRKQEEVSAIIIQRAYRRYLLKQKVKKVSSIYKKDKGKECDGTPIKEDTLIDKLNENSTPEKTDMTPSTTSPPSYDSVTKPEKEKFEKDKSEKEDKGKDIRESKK
Sequence of hTRPA1 (O75762 whole entry): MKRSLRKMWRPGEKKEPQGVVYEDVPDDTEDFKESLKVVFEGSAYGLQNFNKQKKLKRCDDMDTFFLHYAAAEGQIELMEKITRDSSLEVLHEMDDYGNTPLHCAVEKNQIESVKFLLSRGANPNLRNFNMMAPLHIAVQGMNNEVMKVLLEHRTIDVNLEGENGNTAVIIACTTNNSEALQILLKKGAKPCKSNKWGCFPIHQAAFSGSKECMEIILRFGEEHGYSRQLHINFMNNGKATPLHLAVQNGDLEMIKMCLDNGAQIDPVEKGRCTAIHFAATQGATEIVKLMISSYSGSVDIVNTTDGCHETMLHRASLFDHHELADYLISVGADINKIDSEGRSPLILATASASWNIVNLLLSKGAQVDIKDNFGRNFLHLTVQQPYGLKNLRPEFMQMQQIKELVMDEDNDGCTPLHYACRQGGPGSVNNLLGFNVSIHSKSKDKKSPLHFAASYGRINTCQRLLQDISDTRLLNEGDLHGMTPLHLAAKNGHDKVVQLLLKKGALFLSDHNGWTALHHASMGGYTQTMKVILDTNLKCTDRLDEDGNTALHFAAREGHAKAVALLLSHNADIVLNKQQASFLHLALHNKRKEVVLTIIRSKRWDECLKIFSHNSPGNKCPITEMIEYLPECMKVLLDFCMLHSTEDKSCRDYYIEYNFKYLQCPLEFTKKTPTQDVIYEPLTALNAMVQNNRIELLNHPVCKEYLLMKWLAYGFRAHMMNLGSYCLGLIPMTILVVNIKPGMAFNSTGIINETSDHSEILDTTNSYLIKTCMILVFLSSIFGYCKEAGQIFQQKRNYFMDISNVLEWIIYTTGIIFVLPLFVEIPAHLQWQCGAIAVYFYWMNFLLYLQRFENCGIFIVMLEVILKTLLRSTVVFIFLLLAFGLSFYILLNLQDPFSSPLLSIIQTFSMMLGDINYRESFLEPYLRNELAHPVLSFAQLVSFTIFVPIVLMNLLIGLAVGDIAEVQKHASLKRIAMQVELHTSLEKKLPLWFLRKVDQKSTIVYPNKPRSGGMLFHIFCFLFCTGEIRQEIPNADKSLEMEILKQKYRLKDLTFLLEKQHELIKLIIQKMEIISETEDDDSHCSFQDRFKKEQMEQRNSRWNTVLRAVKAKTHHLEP

With `C[C@H]1CCCN1c1ccc(-c2csc(NC(=O)Cn3cnc4c3c(=O)n(C)c(=O)n4C)n2)cc1F` [Formula (III)], the “duration of pain behavior compared with vehicle” value in series [1] was “shorter durations of pain behavior than those treated with the vehicle”. Moreover, the “serum biomarkers of hepatotoxicity (ALT, AST, ALP, GGT)” value in series [2] (dogs, 50 mg/kg PO) is “did elevate serum biomarkers of hepatotoxicity”. Also, the ALT level elevation entry in series [2] (female beagle dogs) is on record as “up to 130 fold”; in series [2] (male dogs), “up to 60 fold”. Moreover, the “serum biomarkers of hepatotoxicity” value in the series on female rats was “did elevate serum biomarkers of hepatotoxicity”.
A word on the IC50: it is the concentration at which inhibition is half-maximal. On to `C[C@H]1CCCN1c1ncc(-c2cccc(NC(=O)Cn3cnc4[nH]c(=O)n(C)c(=O)c43)n2)cn1` [Formula (IV), reference compound], for which the IC50 on hTRPA1 is 9.8 µM; at hTRPV3, over 10 µM; against hERG it was over 20 µM; on hNav1.2, over 20 µM.
On to `CC(C)c1ccc(NC(=O)Cn2cnc3c2c(=O)n(C)c(=O)n3C)cc1` [Formula (II)], for which, in series [1], the “duration of pain behavior compared with vehicle” value is recorded as “shorter durations of pain behavior than those treated with the vehicle”.
